The test has as its target SREBP-2 (Homo sapiens (Human), UniProt Q12772). Briefly: In vitro assay SREBP-2: PathHunter U2OS SREBP-2 Nuclear Translocation Cell Line, U18666A-stimulated. It is filed as cell-based. As to conditions: PathHunter U2OS SREBP-2 nuclear translocation cells, U18666A 10 μM, overnight (16 hours).

By IC50 is commonly meant the concentration needed to halve the response being measured. Higher therefore signals lower potency. `COC(=O)N1CCN(C(=O)O[C@@H](C)[C@H]2CC[C@H]3[C@@H]4CC=C5C[C@@H](O)CC[C@]5(C)[C@H]4CC[C@]23C)CC1` [Example 466, 1-(1S)-1-[(1S,3aS,3bS,7S,9aR,9bS,11aS)-7-hydroxy-9a,11a-dimethyl-1H,2H,3H,3aH,3bH,4H,6H,7H,8H,9H,9aH,9bH,10H,11H,11aH-cyclopenta[a]phenanthren-1-yl]ethyl 4-methyl piperazine-1,4-dicarboxylate] yielded a concentration for half-maximal inhibition (IC50) of 250 to 1000 nM.

Take `COC(=O)N1CCN(C(=O)NC[C@@H](C)[C@H]2CC[C@H]3[C@@H]4CC=C5C[C@@H](O)CC[C@]5(C)[C@H]4CC[C@]23C)CC1` [Example 467, Methyl 4-(((S)-2-((3S,8S,9S,10R,13S,14S,17R)-3-hydroxy-10,13-dimethyl-2,3,4,7,8,9,10,11,12,13,14,15,16,17-tetradecahydro-1H-cyclopenta[a]phenanthren-17-yl)propyl)carbamoyl)piperazine-1-carboxylate]: the half-maximal inhibitory concentration (IC50) was < 250 nM.

In the case of `C[C@H](CCC(=O)N1CCC([C@H](O)C(F)(F)F)CC1)[C@H]1CC[C@H]2[C@@H]3CC=C4C[C@@H](O)CC[C@]4(C)[C@H]3CC[C@]12C` [Example 468, (4R)-4-[(1R,3aS,3bS,7S,9aR,9bS,11aR)-7-hydroxy-9a,11a-dimethyl-1H,2H,3H,3aH,3bH,4H,6H,7H,8H,9H,9aH,9bH,10H,11H,11aH-cyclopenta[a]phenanthren-1-yl]-1-{4-[(1 S)-2,2,2-trifluoro-1-hydroxyethyl]piperidin-1-yl}pentan-1-one], the 50% inhibitory concentration (IC50) was < 250 nM.

On to `C[C@H](CCC(=O)N1CCC(C(NS(C)(=O)=O)C(F)(F)F)CC1)[C@H]1CC[C@H]2[C@@H]3CC=C4C[C@@H](O)CC[C@]4(C)[C@H]3CC[C@]12C` (stereo partly drawn) [Example 476, N-(2,2,2-trifluoro-1-(1-((R)-4-((3S,8S,9S,10R,13R,14S,17R)-3-hydroxy-10,13-dimethyl-2,3,4,7,8,9,10,11,12,13,14,15,16,17-tetradecahydro-1H-cyclopenta[a]phenanthren-17-yl)pentanoyl)piperidin-4-yl)ethyl)methanesulfonamide], for which the 50% inhibitory concentration (IC50) is < 250 nM.

`C[C@H](CCC(=O)N1CCC(C(NC(=O)C(C)(C)O)C(F)(F)F)CC1)[C@H]1CC[C@H]2[C@@H]3CC=C4C[C@@H](O)CC[C@]4(C)[C@H]3CC[C@]12C` (stereo partly drawn) [Example 479, 2-hydroxy-2-methyl-N-(2,2,2-trifluoro-1-(1-((R)-4-((3S,8S,9S,10R,13R,14S,17R)-3-hydroxy-10,13-dimethyl-2,3,4,7,8,9,10,11,12,13,14,15,16,17-tetradecahydro-1H-cyclopenta[a]phenanthren-17-yl)pentanoyl)piperidin-4-yl)ethyl)propanamide]: the IC50 is < 250 nM.

`Cc1noc(C2CCN(C(=O)CC[C@@H](C)[C@H]3CC[C@H]4[C@@H]5CC=C6C[C@@H](O)CC[C@]6(C)[C@H]5CC[C@]34C)CC2)n1` [Example 505, (R)-4-((3S,8S,9S,10R,13R,14S,17R)-3-hydroxy-10,13-dimethyl-2,3,4,7,8,9,10,11,12,13,14,15,16,17-tetradecahydro-1H-cyclopenta[a]phenanthren-17-yl)-1-(4-(3-methyl-1,2,4-oxadiazol-5-yl)piperidin-1-yl)pentan-1-one]: the IC50 is < 250 nM.

For `Cc1noc(OC2CCN(C(=O)CC[C@@H](C)[C@H]3CC[C@H]4[C@@H]5CC=C6C[C@@H](O)CC[C@]6(C)[C@H]5CC[C@]34C)CC2)n1` [Example 506, (R)-4-((3S,8S,9S,10R,13R,14S,17R)-3-hydroxy-10,13-dimethyl-2,3,4,7,8,9,10,11,12,13,14,15,16,17-tetradecahydro-1H-cyclopenta[a]phenanthren-17-yl)-1-(4-((3-methyl-1,2,4-oxadiazol-5-yl)oxy)piperidin-1-yl)pentan-1-one], the IC50 was < 250 nM.

`C[C@H](CCC(=O)N1CCC[C@H](Oc2cnn(C)c2)C1)[C@H]1CC[C@H]2[C@@H]3CC=C4C[C@@H](O)CC[C@]4(C)[C@H]3CC[C@]12C` [Example 517, (4R)-4-[(1R,3aS,3bS,7S,9aR,9bS,11aR)-7-hydroxy-9a,11a-dimethyl-1H,2H,3H,3aH,3bH,4H,6H,7H,8H,9H,9aH,9bH,10H,11H,11aH-cyclopenta[a]phenanthren-1-yl]-1-[(3S)-3-[(1-methyl-1H-pyrazol-4-yl)oxy]piperidin-1-yl]pentan-1-one]: the concentration for half-maximal inhibition (IC50) was < 250 nM.

As to `C[C@H](CCC(=O)N1CCC[C@@H](Oc2cnn(C)c2)C1)[C@H]1CC[C@H]2[C@@H]3CC=C4C[C@@H](O)CC[C@]4(C)[C@H]3CC[C@]12C` [Example 518, (4R)-4-[(1R,3aS,3bS,7S,9aR,9bS,11aR)-7-hydroxy-9a,11a-dimethyl-1H,2H,3H,3aH,3bH,4H,6H,7H,8H,9H,9aH,9bH,10H,11H,11aH-cyclopenta[a]phenanthren-1-yl]-1-[(3R)-3-[(1-methyl-1H-pyrazol-4-yl)oxy]piperidin-1-yl]pentan-1-one], the half-inhibitory concentration (IC50) was < 250 nM.

As to `C[C@H](CCC(=O)N1CCC[C@H](Oc2ccncc2)C1)[C@H]1CC[C@H]2[C@@H]3CC=C4C[C@@H](O)CC[C@]4(C)[C@H]3CC[C@]12C` [Example 520, (R)-4-((3S,8S,9S,10R,13R,14S,17R)-3-hydroxy-10,13-dimethyl-2,3,4,7,8,9,10,11,12,13,14,15,16,17-tetradecahydro-1H-cyclopenta[a]phenanthren-17-yl)-1-((S)-3-(pyridin-4-yloxy)piperidin-1-yl)pentan-1-one], the IC50 was < 250 nM.

As to `C[C@H](CCC(=O)N1CCC[C@@H](Oc2ccncc2)C1)[C@H]1CC[C@H]2[C@@H]3CC=C4C[C@@H](O)CC[C@]4(C)[C@H]3CC[C@]12C` [Example 521, (R)-4-((3S,8S,9S,10R,13R,14S,17R)-3-hydroxy-10,13-dimethyl-2,3,4,7,8,9,10,11,12,13,14,15,16,17-tetradecahydro-1H-cyclopenta[a]phenanthren-17-yl)-1-((R)-3-(pyridin-4-yloxy)piperidin-1-yl)pentan-1-one], the 50% inhibitory concentration (IC50) was < 250 nM.

On to `C[C@H](CCC(=O)N1CCC(CN2CCOC(C)(C)C2=O)CC1)[C@H]1CC[C@H]2[C@@H]3CC=C4C[C@@H](O)CC[C@]4(C)[C@H]3CC[C@]12C` [Example 522, 4-({1-[(4R)-4-[(1R,3aS,3bS,7S,9aR,9bS,11aR)-7-hydroxy-9a,11a-dimethyl-1H,2H,3H,3aH,3bH,4H,6H,7H,8H,9H,9aH,9bH,10H,11H,11aH-cyclopenta[a]phenanthren-1-yl]pentanoyl]piperidin-4-yl}methyl)-2,2-dimethylmorpholin-3-one], for which the IC50 is < 250 nM.

Consider `C[C@H](CCC(=O)N1CCC(C)(CN2CCOC(C)(C)C2=O)CC1)[C@H]1CC[C@H]2[C@@H]3CC=C4C[C@@H](O)CC[C@]4(C)[C@H]3CC[C@]12C` [Example 523, 4-((1-((R)-4-((3S,8S,9S,10R,13R,14S,17R)-3-hydroxy-10,13-dimethyl-2,3,4,7,8,9,10,11,12,13,14,15,16,17-tetradecahydro-1H-cyclopenta[a]phenanthren-17-yl)pentanoyl)-4-methylpiperidin-4-yl)methyl)-2,2-dimethylmorpholin-3-one], for which the IC50 was < 250 nM.

In the case of `C[C@H](CCC(=O)N1CCC(N2CCOC(C)(C)C2=O)CC1)[C@H]1CC[C@H]2[C@@H]3CC=C4C[C@@H](O)CC[C@]4(C)[C@H]3CC[C@]12C` [Example 524, 4-(1-((R)-4-((3S,8S,9S,10R,13R,14S,17R)-3-hydroxy-10,13-dimethyl-2,3,4,7,8,9,10,11,12,13,14,15,16,17-tetradecahydro-1H-cyclopenta[a]phenanthren-17-yl)pentanoyl)piperidin-4-yl)-2,2-dimethylmorpholin-3-one], the half-inhibitory concentration (IC50) was 250 to 1000 nM.

With `C[C@H](CCC(=O)N1CCC(N2CCOCC2=O)CC1)[C@H]1CC[C@H]2[C@@H]3CC=C4C[C@@H](O)CC[C@]4(C)[C@H]3CC[C@]12C` [Example 525, 4-(1-((R)-4-((3S,8S,9S,10R,13R,14S,17R)-3-hydroxy-10,13-dimethyl-2,3,4,7,8,9,10,11,12,13,14,15,16,17-tetradecahydro-1H-cyclopenta [a]phenanthren-17-yl)pentanoyl)piperidin-4-yl)morpholin-3-one], the IC50 is < 250 nM.

For `C[C@H](CCC(=O)N1CC[C@H](NC(=O)c2cnn(C)c2)C1)[C@H]1CC[C@H]2[C@@H]3CC=C4C[C@@H](O)CC[C@]4(C)[C@H]3CC[C@]12C` [Example 526, N-[(3S)-1-[(4R)-4-[(1R,3aS,3bS,7S,9aR,9bS,11aR)-7-hydroxy-9a,11a-dimethyl-1H,2H,3H,3aH,3bH,4H,6H,7H,8H,9H,9aH,9bH,10H,11H,11aH-cyclopenta[a]phenanthren-1-yl]pentanoyl]pyrrolidin-3-yl]-1-methyl-1H-pyrazole-4-carboxamide], the IC50 was < 250 nM.

As to `Cc1noc(C(=O)N[C@H]2CCN(C(=O)CC[C@@H](C)[C@H]3CC[C@H]4[C@@H]5CC=C6C[C@@H](O)CC[C@]6(C)[C@H]5CC[C@]34C)C2)n1` [Example 527, N—((S)-1-((R)-4-((3S,8S,9S,10R,13R,14S,17R)-3-hydroxy-10,13-dimethyl-2,3,4,7,8,9,10,11,12,13,14,15,16,17-tetradecahydro-1H-cyclopenta[a]phenanthren-17-yl)pentanoyl)pyrrolidin-3-yl)-3-methyl-1,2,4-oxadiazole-5-carboxamide], the half-maximal inhibitory concentration (IC50) was < 250 nM.

`C[C@H](CCC(=O)N1CC[C@H](NC(=O)c2ccncn2)C1)[C@H]1CC[C@H]2[C@@H]3CC=C4C[C@@H](O)CC[C@]4(C)[C@H]3CC[C@]12C` [Example 528, N—((S)-1-((R)-4-((3S,8S,9S,10R,13R,14S,17R)-3-hydroxy-10,13-dimethyl-2,3,4,7,8,9,10,11,12,13,14,15,16,17-tetradecahydro-1H-cyclopenta[a]phenanthren-17-yl)pentanoyl)pyrrolidin-3-yl)pyrimidine-4-carboxamide]: the concentration for half-maximal inhibition (IC50) was < 250 nM.

(Values after patent US20230340011A1 (Asteroid Therapeutics, priority 2022, published 2023).)
